Experimental data published in patent US4820834A, “Benzodiazepine analogs” (priority 1987, dated 1989).
Read-outs that look alike come from different tables or passages of the source.

What was measured:
[1] = target: T1, CCK receptor (brain, cerebral cortex) (Cavia porcellus, UniProt H0VZC5); experiment: biochemical; assay type: binding, Male Hartley guinea pigs
T1 construct: Cerebral cortex was dissected and used as a receptor source; from tissue; host or cells: guinea pig cerebral cortex membranes (male Hartley)
T1 sequence (H0VZC5 1-426): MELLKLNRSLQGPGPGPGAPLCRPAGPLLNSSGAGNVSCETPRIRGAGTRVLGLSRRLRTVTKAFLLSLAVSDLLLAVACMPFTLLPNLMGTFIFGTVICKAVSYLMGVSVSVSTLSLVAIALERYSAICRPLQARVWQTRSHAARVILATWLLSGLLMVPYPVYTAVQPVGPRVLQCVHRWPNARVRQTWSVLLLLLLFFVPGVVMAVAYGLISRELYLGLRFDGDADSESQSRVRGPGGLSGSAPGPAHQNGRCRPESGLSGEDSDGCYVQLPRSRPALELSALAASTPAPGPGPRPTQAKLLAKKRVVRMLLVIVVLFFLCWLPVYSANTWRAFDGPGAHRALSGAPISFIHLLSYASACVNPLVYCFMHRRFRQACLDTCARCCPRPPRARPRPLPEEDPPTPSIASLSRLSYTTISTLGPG
Procedure: 2. CCK Recepto Binding (Brain)
CCK-33 was radiolabeled and the binding was Performed according to the description for the Pancreas method with modifications according to Saito et al., J. Neurochem.
Cerebral cortex was dissected and used as a receptor source. Each gram of fresh guinea pig brain tissue was homogenized in 10 ml of Tris/Trizma buffer with a Brinkman polytron PT-10. The homogenates were centrifuged at 42,000 g for 15 minutes. Pellets were resuspended in Tris Buffer, centrifuged as above and resuspended in 200 volumes of binding assay buffer (10 mM N-2-hydroxyethyl-piperazine-N'-2-ethane sulfonic acid (HEPES), 5 mM MgCl2, 0.25 mg/ml bacitracin, 1 mM ethylene glycol-bis-(β-aminoethylether-N,N'-tetraacetic acid) (EGTA), and 0.4% bovine serum albumin (BSA)). […] All assays were run in duplicate or triplicate. The reaction mixtures were incubated at 25° C. for 2 hours and centrifuged in a Beckman Microfuge (4 minutes) immediately after adding 1 ml of ice-cold incubation buffer. The supernatant was aspirated and discarded, pellets were counted with a Beckman gamma 5000.

[2] = target: T2, Gastrin receptor (gastric glands) (Cavia porcellus, UniProt H0VZC5); experiment: Gastrin Receptor Binding in Guinea Pig Gastric Glands; parameters: species or system guinea pig (male Hartley)
T2 construct: The washed guinea pig gastric glands prepared as above were resuspended; from tissue; host or cells: guinea pig gastric mucosal glands (male Hartley)
T2 sequence (H0VZC5 1-426): T1 sequence (H0VZC5 1-426)

[3] = IC50 ^125 I-CCK Brain, guinea pig cerebral cortex, ^125 I-CCK-33, 25° C., 2 hours
[4] = IC50 ^125 I-Gastrin Gastric Glands, 25° C., 30 minutes
[5] = ^125 I-gastrin, 25° C., 30 minutes, read-out: IC50 ^125 I-Gastrin Gastric Glands
[6] = guinea pig cerebral cortex, ^125 I-CCK-33, 25° C., 2 hours; read-out: IC50 ^125 I-CCK Brain
[7] = read-out: IC50 ^125 I-CCK Brain; guinea pig cerebral cortex, ^125 I-CCK-33, 25° C., 2 hours
[8] = read-out: IC50 ^125 I-Gastrin Gastric Glands, 25° C., 30 minutes

| SMILES | IC50 [1, 3] [µM] | IC50 [2, 4] [µM] | other results |
| --- | --- | --- | --- |
| COc1ccc(C(=O)NC2N=C(c3ccccc3F)c3ccccc3NC2=O)cc1 (racemic) [Example 136, 1,3-Dihydro-5-(2-fluorophenyl)-3-(RS)-(p-methoxybenzoylamino)-2H-1,4-benzodiazepin-2-one] | > 40 | 5.4 | – |
| CN1C(=O)C(NC(=O)c2ccccc2Cl)N=C(c2ccccc2)c2ccccc21 (racemic) [Example 139, 3-(RS)-(o-Chlorobenzoylamino)-1,3-dihydro-1-methyl-5-phenyl-2H-1,4-benzodiazepin-2-one] | > 100 | – | IC50 [2, 5]: 30 µM |
| CCOC(=O)CN1C(=O)C(NC(=O)c2ccccc2Cl)N=C(c2ccccc2F)c2ccccc21 (stereo not drawn) [Example 188, 3-(2'-Chlorobenzoylamino)-1-ethoxycarbonylmethyl-5-(2'-fluorophenyl)-2H-1,4-benzodiazepine-2-one] | 3.2 | 1.3 | – |
| O=C(CCc1c[nH]c2ccccc12)NC1N=C(c2ccccc2)c2ccccc2NC1=O (racemic) [Example 75, 3(RS)-[3-(3-indolyl)propionylamino]-1,3-dihydro-5-phenyl-2H-1,4-benzodiazepin-2-one] | 100 | 4.7 | – |
| O=C(NC1N=C(c2ccccc2F)c2ccccc2NC1=O)c1ccsc1 (racemic) [Example 108, 1,3-Dihydro-5-(2-fluorophenyl)-3-(RS)-(3-thiophenecarbonylamino)-2H-1,4-benzodiazepin-2-one] | > 50 | > 10 | – |
| Cn1c(C(=O)NC2N=C(c3ccccc3F)c3ccccc3NC2=O)cc2ccccc21 (racemic) [Example 127, 1,3-Dihydro-3-(RS)-(1-methylindole-2-carbonylamino)-5-(2-fluorophenyl)-2H-1,4-benzodiazepine-2-one] | 7 | 6.3 | – |
| CN1C(=O)[C@@H](NC(=O)c2cccc(I)c2)N=C(c2ccccc2F)c2ccccc21 [Example 167, 3(S)-(+)-1,3-Dihydro-5-(2-fluorophenyl)-3-(3-iodobenzoylamino)-1-methyl-2H-1,4-benzodiazepin-2-one] | – | – | IC50 [1, 6]: 1.7 µM; IC50 [2, 5]: 0.39 µM |
| CN1C(=O)[C@@H](NC(=O)C=Cc2ccccc2)N=C(c2ccccc2)c2ccccc21 [Example 192, (S)-N-(2,3-Dihydro-1-methyl-2-oxo-5-phenyl-1H-1,4-benzodiazeoin-3-yl)-3-phenyl-2-propenamide] | – | – | IC50 [1, 6]: 0.64 µM; IC50 [2, 5]: 0.18 µM |
| O=C(NC1N=C(c2ccccc2)c2ccccc2NC1=O)c1ccc(Cl)cc1 (racemic) [Example 130, 1,3-Dihydro-3-(RS)-(4-chlorophenylcarbonyl)amino-5-phenyl-2H-1,4-benzodiazepin-2-one] | > 40 | 8.2 | – |
| O=C(NC1N=C(c2ccccc2F)c2ccccc2NC1=O)c1cc2ccccc2o1 (racemic) [Example 128, 1,3-Dihydro-5-(2-fluorophenyl)-3-(RS)-(2-benzofurancarbonylamino)-2H-1,4-benzodiazepin-2-one] | – | – | IC50 [1, 7]: 32 µM; IC50 [2, 8]: 11 µM |
| O=C(NC1N=C(c2ccccc2)c2ccccc2NC1=O)c1cc2ccccc2[nH]1 (racemic) [Example 73, 3(RS)-1,3-Dihydro-(2-indolecarbonylamino)-5-phenyl-2H-1,4-benzodiazepin-2-one] | 8 | 4 | – |
| O=C(NC1N=C(c2ccccc2)c2ccccc2NC1=O)c1ccc(Cl)c(Cl)c1 (racemic) [Example 141, 3-(RS)-(3,4-Dichlorobenzoylamino)-1,3-dihydro-5-phenyl-2H-1,4-benzodiazepin-2-one] | > 40 | 25 | – |
| O=C(NC1N=C(c2ccccc2F)c2ccccc2NC1=O)c1cc2ccccc2[nH]1 (racemic) [Example 105, 1,3-Dihydro-5-(2-fluorophenyl)-3-(RS)-(2-indolecarbonylamino)-2H-1,4-benzodiazeoin-2-one] | 3 | 4.6 | – |
| O=C(CCCc1c[nH]c2ccccc12)NC1N=C(c2ccccc2)c2ccccc2NC1=O (racemic) [Example 97, 3(RS)-[4-(3-Indole)butyrylamino]-1,3-dihydro-5-phenyl-2H-1,4-benzodiazepin-2-one] | > 100 | 200 | – |
| CN1C(=O)[C@@H](NC(=O)c2ccccc2Br)N=C(c2ccccc2F)c2ccccc21 [Example 161, 3(S)-(-)-3-(2-Bromobenzoylamino)-1,3-dihydro-5-(2-fluorophenyl)-1-methyl-2H-1,4-benzodiazepin-2-one] | 70 | – | IC50 [2, 5]: 19 µM |
| O=C(NC1N=C(c2ccccc2)c2ccccc2NC1=O)c1ccc(F)cc1 (racemic) [Example 144, 1-3-Dihydro-3-(RS)-(4'-fluorobenzoylamino)-5-phenyl-2H-1,4-benzodiazeoin-2-one] | 43 | 9.4 | – |
| CCOC(=O)CN1C(=O)C(NC(=O)c2ccc(Cl)cc2)N=C(c2ccccc2F)c2ccccc21 (racemic) [Example 129, 1-Ethoxycarbonylmethyl-1,3-dihydro-3(RS)-(4-chloro-phenylcarbonyl)amino-5-(2-fluorophenyl)-2H-1,4-benzodiazepin-2-one] | 1.9 | 0.69 | – |
| O=C(NCC1CNc2ccccc2C(c2ccccc2F)=N1)c1cc2ccccc2[nH]1 (racemic) [Example 100, 1,3-Dihydro-3(RS)-(2'-indolecarbonyl)aminomethyl-5-(2-fluorophenyl)-2H-1,4-benzodiazepine] | – | – | IC50 [1, 7]: 34 µM; IC50 [2, 8]: 22 µM |
| O=C(C=Cc1ccccc1)NC1N=C(c2ccccc2F)c2ccccc2NC1=O (racemic) [Example 121, 3-(RS)-Cinnamoylamino-1,3-dihydro-5-(2-fluorophenyl)-2H-1,4-benzodiazepin-2-one] | – | – | IC50 [1, 6]: 5.5 µM; IC50 [2, 5]: 3.8 µM |
| CN1C(=O)C(NC(=O)[C@H](Cc2ccccc2)NC(=O)OC(C)(C)C)N=C(c2ccccc2)c2ccccc21 (mixture of isomers) [Example 83, 3(RS)-(2(S)-tert-Butoxycarbonylamino-3-phenylpropanoyl-amino)-1,3-dihydro-1-methyl-5-phenyl-2H-1,4-benzodi-azepin-2-one] | – | – | IC50 [1, 6]: 13 µM; IC50 [2, 5]: 26 µM |
| O=C(O)CN1C(=O)C(NC(=O)c2cc3ccccc3[nH]2)N=C(c2ccccc2)c2ccccc21 (racemic) [Example 78, 1-Carboxymethyl-1,3-dihydro-3(RS)-(2-indolearbonyl-amino)-5-phenyl-2H-1,4-benzodiazepin-2-one] | 5.5 | 0.65 | – |
| O=C(NC1N=C(c2ccccc2F)c2ccccc2NC1=O)c1ccc[nH]1 (racemic) [Example 158, 1,3-Dihydro-5-(2-fluorophenyl)-3(RS)-(pyrrole-2-carbonylamino)-2H-1,4-benzodiazepin-2-one] | 100 | 25 | – |
| O=C(NC1N=C(c2ccccc2F)c2ccccc2NC1=O)c1ccccc1Cl (racemic) [Example 174, 1,3-Dihydro-5-(2-fluorophenyl)-3(RS)-(2-chlorophenyl)carbonylamino-2H-1,4-benzodiazepin-2-one] | > 40 | 18 | – |
| O=C(O)CN1C(=O)C(NC(=O)c2ccc(Cl)cc2)N=C(c2ccccc2F)c2ccccc21 (racemic) [Example 132, 1-Carboxymethyl-1,3-dihydro-3-(RS)-(4-chlorophenyl-carbonyl)amino-5-(2-fluorophenyl)-2H-1,4-benzodiazepin-2-one] | > 100 | 8.2 | – |
